One experiment addresses Histamine H3 receptor (Cavia porcellus, UniProt Q9JI35). As to the kind of experiment: Inhibition of [3H]N-alpha-methylhistamine binding to guinea pig brain Histamine H3 receptor.
In experiment [1] the target is Histamine H3 receptor (Cavia porcellus) (UniProt Q9JI35). The settings on record: Ileum.
Description: (§1) In vitro effective concentration for H-3-mediated contraction of guinea pig ileum
Another experiment has as its target Histamine H1 receptor (Cavia porcellus, UniProt P31389). Kind of experiment: Binding affinity to H-1 receptor was determined in guinea pig brain tissue using [3H]- […] ligand.
Experiment [2] deals with Histamine H1 receptor (Cavia porcellus) (UniProt P31389). The settings on record: Ileum.
Description: In vitro effective concentration for H-1-mediated contraction of guinea pig ileum
Experiment [3] shares this target. Kind of experiment: H1-mediated bronchoconstrictor effect after intravenous administration in anesthetized guinea pig. The settings on record: Lung. The class given is functional, organism-based.
Experiment [4] concerns the target Histamine H3 receptor (Cavia porcellus) (UniProt Q9JI35). As to conditions: Ileum. This is another data set of the same source.
Description: as §1
In experiment [5] the target is Histamine H1 receptor (Cavia porcellus) (UniProt P31389). The settings on record: Ileum. This is another data set of the same source.
Description: In vitro effective concentration for H1-mediated contraction of guinea pig ileum

Some results are limits rather than exact numbers.

Sequence of Histamine H3 receptor (Q9JI35 whole entry): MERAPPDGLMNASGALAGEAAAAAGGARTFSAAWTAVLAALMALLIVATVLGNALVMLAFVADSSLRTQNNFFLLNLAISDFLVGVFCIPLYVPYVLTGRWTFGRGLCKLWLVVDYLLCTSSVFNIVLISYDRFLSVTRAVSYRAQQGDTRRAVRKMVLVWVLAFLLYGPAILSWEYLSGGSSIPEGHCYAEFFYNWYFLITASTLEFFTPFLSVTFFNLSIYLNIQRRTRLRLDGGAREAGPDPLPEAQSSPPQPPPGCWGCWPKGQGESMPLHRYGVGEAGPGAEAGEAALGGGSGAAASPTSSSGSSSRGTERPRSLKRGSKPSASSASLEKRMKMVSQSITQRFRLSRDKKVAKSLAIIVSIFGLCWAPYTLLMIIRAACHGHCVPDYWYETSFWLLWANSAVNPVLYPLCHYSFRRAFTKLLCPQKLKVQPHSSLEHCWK
Sequence of Histamine H1 receptor (Cavia porcellus) (P31389 whole entry): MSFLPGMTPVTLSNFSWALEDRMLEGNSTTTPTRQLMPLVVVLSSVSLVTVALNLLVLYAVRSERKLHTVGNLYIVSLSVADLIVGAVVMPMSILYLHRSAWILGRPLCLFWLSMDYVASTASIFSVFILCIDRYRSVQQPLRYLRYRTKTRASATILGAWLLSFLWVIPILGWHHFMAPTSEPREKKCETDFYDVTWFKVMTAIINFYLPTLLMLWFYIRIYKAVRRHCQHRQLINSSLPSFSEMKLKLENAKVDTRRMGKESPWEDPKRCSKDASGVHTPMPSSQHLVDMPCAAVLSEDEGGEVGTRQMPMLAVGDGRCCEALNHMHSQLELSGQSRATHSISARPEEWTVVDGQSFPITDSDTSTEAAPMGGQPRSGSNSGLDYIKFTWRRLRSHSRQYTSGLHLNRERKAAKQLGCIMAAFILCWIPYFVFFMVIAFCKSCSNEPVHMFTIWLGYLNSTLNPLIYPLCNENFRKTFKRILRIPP
Sequence of Histamine H3 receptor (Cavia porcellus) (Q9JI35 whole entry): as the sequence (Q9JI35 whole entry) above
Sequence of Histamine H1 receptor (P31389 whole entry): as the sequence (P31389 whole entry) above

In the case of `C[C@@H]1NCC[C@@H]1c1c[nH]cn1`, the Ki at Histamine H3 receptor came to 59 nM.
Still for that read-out and setting: the same measure for `C[C@H]1NCC[C@@H]1c1c[nH]cn1`: 3 nM; for `C[C@H]1NCCC[C@@H]1c1cnc[nH]1`: over 2000 nM.
On the same count and under the same terms, next, `C[C@H]1C[C@H](c2cnc[nH]2)CN1`: 76 nM; `C[C@H]1CNC[C@H]1c1c[nH]cn1`: 3 nM.
The compound `C[C@]1(c2c[nH]cn2)CCNC1` gave a Ki on Histamine H3 receptor of 170 nM. This Ki lies about 57-fold higher than the previous one.
Still for that read-out and setting: next, `c1ccc(C[C@H]2NCC[C@@H]2c2c[nH]cn2)cc1`: over 2000 nM.
Take `C[C@H]1CNC[C@@H]1c1c[nH]cn1`: the pD2 is 7.5 in experiment [1] and under 4 in experiment [2]. Besides, the inhibitory constant (Ki) at Histamine H1 receptor was over 10000 nM; on Histamine H3 receptor, 2.3 nM.
Regarding `C[C@H]1NC[C@@H]1c1c[nH]cn1`, the Ki at Histamine H3 receptor was found to be 7 nM. The compound also gave an ED50 in experiment [3] of over 0.3 mg/kg.
With `C[C@@H]1CNC[C@H]1c1cnc[nH]1`, on Histamine H3 receptor, the inhibition constant (Ki) is 5 nM.
The compound `C[C@@H](N)Cc1c[nH]cn1` showed a Ki on Histamine H1 receptor of over 10000 nM. The results for the pD2 in experiment [4] and in experiment [5] were 8.2 and 5.4, respectively.
Consider `c1nc(C2CCNC2)c[nH]1` (stereo not given), for which the inhibition constant Ki at Histamine H3 receptor was 2 nM. The same compound showed a median effective dose (ED50) in experiment [3] of 0.3 mg/kg.
As to `CC[C@H]1NCC[C@@H]1c1cnc[nH]1`, the Ki at Histamine H3 receptor came out at 150 nM.

As a reminder, the Ki is the dissociation constant of the complex between target and ligand, obtained from inhibition or displacement. The low end stands for higher affinity, the high end for lower affinity. The term ED50 denotes the dose that gives a 50% effect, or the effect in half of the subjects. A low value points to an effect at a small dose.

The values above are taken from ChEMBL document CHEMBL1131557 (Bioorg Med Chem Lett, 1998).
